These results are taken from PubChem BioAssay AID651650 (Sanford-Burnham Center for Chemical Genomics, 2012).

The target in this assay is Neuropilin-1 (Homo sapiens) (UniProt O14786). The assay can be described thus: blockers of CendR peptide binding to NRP-1 – biochemical, FP and AlphaScreen panel, dose response (AID 651650). The settings on record: NRP-1 b1b2 / RPARPAR peptide binding, FP or AlphaScreen. For orientation: Bead proximity is the source of the signal in Alpha formats.
Where [1] appears, read: AlphaScreen, run 1, individual panel run IC50.
The mark [2] stands for this setting: FP, run 1, individual panel run IC50.
Setting [3] is: FP, run 2, individual panel run IC50.

SMILES strings stand for the structures. Activity calls are given as the source filed them.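 The calls were made as follows: active = mean IC50 below 20 µM in each of the two panels, so potent in both; inactive = the rest.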 Where only a bound is given, the exact number is not on record here.

As usually defined, the IC50 is the midpoint of a concentration-inhibition curve.

Neuropilin-1 (Homo sapiens), sequence (O14786 whole entry, looked up): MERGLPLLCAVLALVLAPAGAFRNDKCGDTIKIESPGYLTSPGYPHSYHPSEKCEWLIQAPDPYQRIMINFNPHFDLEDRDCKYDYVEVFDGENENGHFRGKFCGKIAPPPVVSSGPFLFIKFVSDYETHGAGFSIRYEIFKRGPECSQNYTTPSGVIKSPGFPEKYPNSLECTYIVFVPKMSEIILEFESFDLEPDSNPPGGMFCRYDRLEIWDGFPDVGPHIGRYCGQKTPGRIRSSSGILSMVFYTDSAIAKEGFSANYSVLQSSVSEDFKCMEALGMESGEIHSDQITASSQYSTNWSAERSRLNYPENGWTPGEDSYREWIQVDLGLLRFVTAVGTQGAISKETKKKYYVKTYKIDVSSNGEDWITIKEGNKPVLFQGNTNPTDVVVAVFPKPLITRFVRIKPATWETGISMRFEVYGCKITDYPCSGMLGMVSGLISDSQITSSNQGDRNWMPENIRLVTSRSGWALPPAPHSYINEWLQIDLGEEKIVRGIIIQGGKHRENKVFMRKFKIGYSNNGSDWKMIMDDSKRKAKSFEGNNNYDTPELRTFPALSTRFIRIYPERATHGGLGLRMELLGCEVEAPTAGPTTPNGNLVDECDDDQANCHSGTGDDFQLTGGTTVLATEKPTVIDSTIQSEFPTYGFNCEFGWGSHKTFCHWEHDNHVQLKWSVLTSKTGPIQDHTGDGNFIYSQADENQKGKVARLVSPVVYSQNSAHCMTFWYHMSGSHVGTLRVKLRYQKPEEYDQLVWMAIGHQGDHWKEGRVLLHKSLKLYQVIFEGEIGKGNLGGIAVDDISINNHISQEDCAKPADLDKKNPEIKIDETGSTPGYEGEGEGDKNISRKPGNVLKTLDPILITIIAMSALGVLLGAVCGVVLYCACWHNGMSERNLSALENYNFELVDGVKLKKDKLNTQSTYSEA

Consider `CCOC(=O)N1CCN(C(=O)c2cc3n(n2)C(C(F)(F)F)CC(c2ccc4c(c2)OCO4)N3)CC1` (stereo not given), for which the IC50 is, setting by setting: (AlphaScreen, mean of runs) > 100 µM (inactive); under setting [1], above 100 µM; (FP, mean of runs) > 95 µM (inactive); under setting [2], above 95 µM; under setting [3], above 95 µM.
For `CCCCOC(=O)c1ccc(NS(=O)(=O)c2cc(-c3nnnn3CC)ccc2OC)cc1`, the IC50 is > 100 µM (inactive) (AlphaScreen, mean of runs); above 100 µM under setting [1]; > 95 µM (inactive) (FP, mean of runs); above 95 µM under setting [2]; above 95 µM under setting [3].
For the compound `COc1cc(C(=O)NCc2ccccc2)cc(Br)c1OC`, the IC50 is, setting by setting: (AlphaScreen, mean of runs) > 100 µM (inactive); under setting [1], above 100 µM; (FP, mean of runs) > 95 µM (inactive); under setting [2], above 95 µM; under setting [3], above 95 µM.
Take `COc1cccc(C(=O)N2N=C(c3ccccc3)CC2(O)C(F)(F)F)c1` (stereo not given): the IC50 (AlphaScreen, mean of runs) was > 100 µM (inactive); the IC50 under setting [1] is above 100 µM; the IC50 (FP, mean of runs) was > 95 µM (inactive); the IC50 under setting [2] was above 95 µM; the IC50 under setting [3] was above 95 µM.
With `Cc1ccccc1Oc1ccc2c(c1)[C@@H]1C[C@H](N(C)C(=O)Nc3cc(Cl)cc(Cl)c3)[C@H]([C@H](C)O)C(=O)N1CC2`, the IC50 reads like this: (AlphaScreen, mean of runs) 12.3 µM; under setting [1], 12.3 µM; (FP, mean of runs) > 95 µM (inactive); under setting [2], above 95 µM; under setting [3], above 95 µM.
Regarding `CC(C)(C)C(=O)COC(=O)c1cc(-c2ccncc2)nc2ccccc12`, the IC50 (AlphaScreen, mean of runs) was > 100 µM (inactive); the IC50 under setting [1] is above 100 µM; the IC50 under setting [2] was above 95 µM; the IC50 under setting [3] was 40.5 µM. Also, the IC50 entry (FP, mean of runs) is “inactive”.
For `CC1(C)c2ccccc2C(=O)c2ccccc21`, the IC50 was > 100 µM (inactive) (AlphaScreen, mean of runs); above 100 µM under setting [1]; > 95 µM (inactive) (FP, mean of runs); above 95 µM under setting [2]; above 95 µM under setting [3].
`CC(OC(=O)c1ccco1)C(=O)Nc1nc(-c2ccccc2)cs1` (stereo not given): the IC50 (AlphaScreen, mean of runs) was > 100 µM (inactive); the IC50 under setting [1] is above 100 µM; the IC50 (FP, mean of runs) is > 95 µM (inactive); the IC50 under setting [2] was above 95 µM; the IC50 under setting [3] is above 95 µM.
In the case of `Cc1cccc(CN2CCN(C3CN(Cc4cn(Cc5cccc(Cl)c5)nn4)S(=O)(=O)C3)CC2)c1` (stereo not given), the IC50 was > 100 µM (inactive) (AlphaScreen, mean of runs); above 100 µM under setting [1]; > 95 µM (inactive) (FP, mean of runs); above 95 µM under setting [2]; above 95 µM under setting [3].
Consider `O=C1CCC/C=C\C[C@@H](CC(=O)N(CCO)Cc2ccccc2)C(=O)N2CCC[C@H]2CO1`, for which the IC50 is, setting by setting: (AlphaScreen, mean of runs) > 100 µM (inactive); under setting [1], above 100 µM; (FP, mean of runs) > 95 µM (inactive); under setting [2], above 95 µM; under setting [3], above 95 µM.
Take `NC(=S)NNC(=S)Nc1ccccc1`: the IC50 was > 100 µM (inactive) (AlphaScreen, mean of runs); above 100 µM under setting [1]; > 95 µM (inactive) (FP, mean of runs); above 95 µM under setting [2]; above 95 µM under setting [3].
For `O=c1c2cn[nH]c2nc(SCc2ccccc2F)n1-c1ccc(Br)cc1`, the IC50 (AlphaScreen, mean of runs) is > 100 µM (inactive); the IC50 under setting [1] was above 100 µM; the IC50 (FP, mean of runs) is > 95 µM (inactive); the IC50 under setting [2] is above 95 µM; the IC50 under setting [3] was above 95 µM.
On to `Cc1ccc(/C=N/Nc2nc3ccccc3[nH]2)s1`, for which the IC50 (AlphaScreen, mean of runs) is > 100 µM (inactive); the IC50 under setting [1] is above 100 µM; the IC50 (FP, mean of runs) is > 95 µM (inactive); the IC50 under setting [2] is above 95 µM; the 50% inhibitory concentration (IC50) under setting [3] was above 95 µM.
For `CCOC(=O)Cc1ccc(NS(=O)(=O)c2ccc(SC)cc2)cc1`, the IC50 by setting is: (AlphaScreen, mean of runs) > 100 µM (inactive); under setting [1], above 100 µM; (FP, mean of runs) > 95 µM (inactive); under setting [2], above 95 µM; under setting [3], above 95 µM.
